Laboratory results from patent US9453062B2, “Glucose dependent insulinotropic polypeptide analogs, pharmaceutical compositions and use thereof” (Beijing Hanmi Pharmaceutical Co., Ltd., priority 2011, dated 2016).
Like-named read-outs stand apart in the source and are kept apart here. *1 amine or outer side, *2 acyl side, *3 side chain or, on linkers, in order; H or OH if unused. Where a SMILES comes first, the peptide text is derived from it. Bridges are numbered along the chain shown (N, C = ends). Side-chain parts run from the residue outwards. [ ]: non-standard residue; d: D form. The star is where a group is joined. γGlu = O=C(O)[C@H](CCC(=O)[*:2])N[*:1]; Palmitoyl = CCCCCCCCCCCCCCCC(=O)*; Aib = CC(C)(N)C(=O)O

What was measured:
[1] = biological target: T1, hGLP-1R (Homo sapiens, UniProt P43220); experiment: hGLP-1R-mediated cAMP induction assay in CHO cell line; assay type: cell-based;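 further: CHO cells expressing human GLP-1R, treated 30 min at 37 °C, intracellular cAMP measured by competitive fluorescent immunoassay and converted via a cAMP standard curve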
T1 construct: expressed in transfected cells; host or cells: CHO
T1 sequence (P43220 24-463): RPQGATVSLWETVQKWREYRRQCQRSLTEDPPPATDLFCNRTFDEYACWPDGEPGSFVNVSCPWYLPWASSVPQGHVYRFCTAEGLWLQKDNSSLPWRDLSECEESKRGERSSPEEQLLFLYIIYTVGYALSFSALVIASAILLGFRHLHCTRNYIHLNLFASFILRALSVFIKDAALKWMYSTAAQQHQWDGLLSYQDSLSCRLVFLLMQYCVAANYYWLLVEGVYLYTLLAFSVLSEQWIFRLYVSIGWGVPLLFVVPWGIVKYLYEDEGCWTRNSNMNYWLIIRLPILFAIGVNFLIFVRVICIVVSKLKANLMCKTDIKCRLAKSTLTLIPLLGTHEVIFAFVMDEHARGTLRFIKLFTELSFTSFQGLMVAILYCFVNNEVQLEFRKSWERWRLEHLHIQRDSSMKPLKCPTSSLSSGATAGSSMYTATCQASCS
Description: (§1) The cAMP in the sample or standard competes with horseradish peroxidase (HRP)-labeled cAMP conjugate for binding sites on the anti-cAMP antibodies. In the absence of cAMP, most of the HRP-cAMP conjugate is bound to the antibody. Increasing concentrations of cAMP competitively decrease the amount of bound conjugate, thus decreasing measured HRP activity.
(§2) Assay kit: CatchPoint™ Cyclic-AMP Fluorescent Assay Kit (Molecular Devices, Product # R8088)
Cell lines: CHO hGLP1R, CHO hGIPR
(§3) Cell seeding: CHO hGLP1R or CHO hGIPR cells: 10,000 cells/well/100 uL at 37° C. 5% CO2 overnight.
(§4) Gently aspirate off media and wash the cells with KRBG Buffer, 100 uL/well.
(§5) Incubate the plate for 10 min at room temperature. Then add the KRBG buffer with 3× final concentration of the tested samples (5-foled series diluted from 5,000 nM), 50 uL/well. Incubate the plate at 37° C. 5% CO2 for 30 min.
(§6) Add 50 uL of Lysis buffer to each well and put the plate on a shaker for 10 min.
(§7) Place 40 uL of samples and analyze in appropriate wells. And test the cAMP concentration in each sample by following the manufacture's instruction.
(§8) Detect the fluorescence signal at Ex: 490 nm and Em: 530 nm. Transfer the FI signal to cAMP concentration by the cAMP standard curve. The Dose-response curve and EC50 were obtained by logistic fitting of Origin 8.

[2] = biological target: T2, hGIPR (Homo sapiens, UniProt P48546); experiment: hGIPR-mediated cAMP induction assay in CHO cell line; assay type: cell-based
T2 construct: expressed in transfected cells; host or cells: CHO
T2 sequence (P48546 22-466): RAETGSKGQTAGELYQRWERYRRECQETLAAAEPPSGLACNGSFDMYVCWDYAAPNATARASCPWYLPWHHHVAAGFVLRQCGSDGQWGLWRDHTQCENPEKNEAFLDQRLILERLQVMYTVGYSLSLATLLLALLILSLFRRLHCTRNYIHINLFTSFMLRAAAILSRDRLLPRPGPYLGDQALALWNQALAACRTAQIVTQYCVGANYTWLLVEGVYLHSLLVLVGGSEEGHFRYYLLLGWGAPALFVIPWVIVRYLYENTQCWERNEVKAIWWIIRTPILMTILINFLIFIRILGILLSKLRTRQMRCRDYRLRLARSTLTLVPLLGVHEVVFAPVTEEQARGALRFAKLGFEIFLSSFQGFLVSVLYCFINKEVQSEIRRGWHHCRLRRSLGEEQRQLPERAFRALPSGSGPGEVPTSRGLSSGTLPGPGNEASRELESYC
Description: as §1, §2
Cell lines: CHO hGLP1R, CHO hGIPR
as §3, §4, §5, §6, §7, §8

Row | Compound | EC50 ([1]; Table 3, CHO hGLP1R cells) [nM] | GLP-1 Receptor Relative Potency ([1]; Table 3, against native GLP-1) | EC50 ([2]; Table 3, CHO hGIPR cells) [nM] | GIP Receptor Relative Potency ([2]; Table 3, against native GIP) | EC50 ([1]; Table 1, CHO/hGLP-1R cells, read-out: GLP-1R EC50) [nM] | GLP-1R Relative Potency ([1]; Table 1, against native GLP-1) [%] | EC50 ([2]; Table 1, CHO/hGIPR cells, read-out: GIPR EC50) [nM] | GIPR Relative Potency ([2]; Table 1, against native GIP) [%]
1 | CCCCCCCCCCCCCCCC(=O)NCCCC[C@H](NC(=O)[C@H](CO)NC(=O)[C@@H]1CCCN1C(=O)[C@@H]1CCCN1C(=O)[C@@H]1CCCN1C(=O)[C@H](C)NC(=O)CNC(=O)[C@H](CO)NC(=O)[C@H](CO)NC(=O)[C@@H]1CCCN1C(=O)CNC(=O)CNC(=O)[C@H](CCCCN)NC(=O)[C@@H](NC(=O)[C@H](CC(C)C)NC(=O)[C@H](Cc1c[nH]c2ccccc12)NC(=O)[C@H](C)NC(=O)[C@@H](NC(=O)[C@H](Cc1ccccc1)NC(=O)[C@H](CCC(=O)O)NC(=O)[C@H](CCCNC(=N)N)NC(=O)[C@@H](NC(=O)[C@H](C)NC(=O)[C@H](CCC(=O)O)NC(=O)[C@H](CCCCN)NC(=O)[C@H](CCC(=O)O)NC(=O)[C@H](CCSC)NC(=O)[C@H](Cc1ccc(O)cc1)NC(=O)[C@@H](NC(=O)[C@H](CO)NC(=O)[C@H](Cc1ccc(O)cc1)NC(=O)[C@H](CC(=O)O)NC(=O)[C@H](CO)NC(=O)[C@@H](NC(=O)[C@H](Cc1ccccc1)NC(=O)[C@@H](NC(=O)CNC(=O)[C@H](CCC(N)=O)NC(=O)C(C)(C)NC(=O)[C@@H](N)Cc1ccc(O)cc1)[C@@H](C)O)[C@@H](C)O)[C@@H](C)CC)C(C)C)[C@@H](C)CC)C(C)C)C(N)=O [Compound 120] (H-Y[Aib]QGTFTSDYSIYMEKEAVREFIAWLVKGGPSSGAPPPSK(Palmitoyl)-NH2) | 0.253 | 586.6 | 0.039 | 294.9 | – | – | – | –
2 | CC[C@H](C)[C@H](NC(=O)[C@H](CO)NC(=O)[C@H](Cc1ccc(O)cc1)NC(=O)[C@H](CC(=O)O)NC(=O)[C@H](CO)NC(=O)[C@@H](NC(=O)[C@H](Cc1ccccc1)NC(=O)[C@@H](NC(=O)CNC(=O)[C@H](CCC(=O)O)NC(=O)C(C)(C)NC(=O)[C@@H](N)Cc1ccc(O)cc1)[C@@H](C)O)[C@@H](C)O)C(=O)N[C@@H](Cc1ccc(O)cc1)C(=O)N[C@@H](CCSC)C(=O)N[C@@H](CCC(=O)O)C(=O)N[C@@H](CCCCN)C(=O)N[C@@H](CCC(=O)O)C(=O)N[C@@H](C)C(=O)N[C@H](C(=O)N[C@@H](CCCNC(=N)N)C(=O)N[C@@H](CC(C)C)C(=O)N[C@@H](Cc1ccccc1)C(=O)N[C@H](C(=O)N[C@@H](CCC(=O)O)C(=O)N[C@@H](Cc1c[nH]c2ccccc12)C(=O)N[C@@H](CC(C)C)C(=O)N[C@@H](CCCCN)C(=O)N[C@@H](CC(N)=O)C(=O)NCC(N)=O)[C@@H](C)CC)C(C)C [Compounds 024] (H-Y[Aib]EGTFTSDYSIYMEKEAVRLFIEWLKNG-NH2; N-terminus assumed) | – | 354 | – | 500 | 0.309 | 354 | 0.1 | 500
3 | CCCCCCCCCCCCCCCC(=O)N[C@@H](CCC(=O)NCCCC[C@H](NC(=O)[C@@H](NC(=O)[C@H](C)NC(=O)[C@H](CCC(=O)O)NC(=O)[C@H](CCCCN)NC(=O)[C@H](CCC(=O)O)NC(=O)[C@H](CCSC)NC(=O)[C@H](Cc1ccc(O)cc1)NC(=O)[C@@H](NC(=O)[C@H](CO)NC(=O)[C@H](Cc1ccc(O)cc1)NC(=O)[C@H](CC(=O)O)NC(=O)[C@H](CO)NC(=O)[C@@H](NC(=O)[C@H](Cc1ccccc1)NC(=O)[C@@H](NC(=O)CNC(=O)[C@H](CCC(=O)O)NC(=O)C(C)(C)NC(=O)[C@@H](N)Cc1ccc(O)cc1)[C@@H](C)O)[C@@H](C)O)[C@@H](C)CC)C(C)C)C(=O)N[C@@H](CCC(=O)O)C(=O)N[C@@H](Cc1ccccc1)C(=O)N[C@H](C(=O)N[C@@H](C)C(=O)N[C@@H](Cc1c[nH]c2ccccc12)C(=O)N[C@@H](CC(C)C)C(=O)N[C@H](C(=O)N[C@@H](CCCCN)C(=O)NCC(=O)NCC(=O)N1CCC[C@H]1C(=O)N[C@@H](CO)C(=O)N[C@@H](CO)C(=O)NCC(=O)N[C@@H](C)C(=O)N1CCC[C@H]1C(=O)N1CCC[C@H]1C(=O)N1CCC[C@H]1C(=O)N[C@@H](CO)C(N)=O)C(C)C)[C@@H](C)CC)C(=O)O [Compound 092] (H-Y[Aib]EGTFTSDYSIYMEKEAVK([γGlu-Palmitoyl])EFIAWLVKGGPSSGAPPPS-NH2) | 0.39 | 256.4 | 0.15 | 26.6 | – | – | – | –
4 | CC[C@H](C)[C@H](NC(=O)[C@H](CO)NC(=O)[C@H](Cc1ccc(O)cc1)NC(=O)[C@H](CC(=O)O)NC(=O)[C@H](CO)NC(=O)[C@@H](NC(=O)[C@H](Cc1ccccc1)NC(=O)[C@@H](NC(=O)CNC(=O)[C@H](CCC(=O)O)NC(=O)C(C)(C)NC(=O)[C@@H](N)Cc1ccc(O)cc1)[C@@H](C)O)[C@@H](C)O)C(=O)N[C@@H](Cc1ccc(O)cc1)C(=O)N[C@@H](CCSC)C(=O)N[C@@H](CCC(=O)O)C(=O)N[C@@H](CCCCN)C(=O)N[C@@H](CCC(=O)O)C(=O)N[C@@H](C)C(=O)N[C@H](C(=O)N[C@@H](CCCNC(=N)N)C(=O)N[C@@H](CCC(=O)O)C(=O)N[C@@H](Cc1ccccc1)C(=O)N[C@H](C(=O)N[C@@H](CS)C(=O)N[C@@H](Cc1c[nH]c2ccccc12)C(=O)N[C@@H](CC(C)C)C(=O)N[C@H](C(=O)N[C@@H](CCCCN)C(=O)NCC(=O)NCC(=O)N1CCC[C@H]1C(=O)N[C@@H](CO)C(=O)N[C@@H](CO)C(=O)NCC(=O)N[C@@H](C)C(=O)N1CCC[C@H]1C(=O)N1CCC[C@H]1C(=O)N1CCC[C@H]1C(=O)N[C@@H](CO)C(=O)N[C@@H](CCCCN)C(N)=O)C(C)C)[C@@H](C)CC)C(C)C [Compound 105] (H-Y[Aib]EGTFTSDYSIYMEKEAVREFICWLVKGGPSSGAPPPSK-NH2; N-terminus assumed) | 3.94 | – | 0.4 | – | – | – | – | –
5 | CC[C@H](C)[C@H](NC(=O)[C@H](Cc1ccccc1)NC(=O)[C@H](CCC(=O)O)NC(=O)[C@@H]1CCC(=O)NCCCC[C@H](NC(=O)[C@H](CCC(=O)O)NC(=O)[C@H](CCSC)NC(=O)[C@H](Cc2ccc(O)cc2)NC(=O)[C@@H](NC(=O)[C@H](CO)NC(=O)[C@H](Cc2ccc(O)cc2)NC(=O)[C@H](CC(=O)O)NC(=O)[C@H](CO)NC(=O)[C@@H](NC(=O)[C@H](Cc2ccccc2)NC(=O)[C@@H](NC(=O)CNC(=O)[C@H](CCC(=O)O)NC(=O)C(C)(C)NC(=O)[C@@H](N)Cc2ccc(O)cc2)[C@@H](C)O)[C@@H](C)O)[C@@H](C)CC)C(=O)N[C@@H](CCC(=O)O)C(=O)N[C@@H](C)C(=O)N[C@@H](C(C)C)C(=O)N1)C(=O)N[C@@H](C)C(=O)N[C@@H](Cc1c[nH]c2ccccc12)C(=O)N[C@@H](CC(C)C)C(=O)N[C@H](C(=O)N[C@@H](CCCCN)C(=O)NCC(N)=O)C(C)C [Compound 053-2] (H-Y[Aib]EGTFTSDYSIYMEKEAVEEFIAWLVKG-NH2; lactam 16-20; N-terminus assumed) | 2.95 | 37 | – | 35.4 | – | – | – | –
6 | CC[C@H](C)[C@H](NC(=O)[C@H](Cc1ccccc1)NC(=O)[C@H](CCC(=O)O)NC(=O)[C@H](CCCNC(=N)N)NC(=O)[C@@H](NC(=O)[C@H](C)NC(=O)[C@H](CCC(=O)O)NC(=O)[C@H](CCCCN)NC(=O)[C@H](CCC(=O)O)NC(=O)[C@H](CCSC)NC(=O)[C@H](Cc1ccc(O)cc1)NC(=O)[C@H](CCC(=O)O)NC(=O)[C@H](CO)NC(=O)[C@H](Cc1ccc(O)cc1)NC(=O)[C@H](CC(=O)O)NC(=O)[C@H](CO)NC(=O)[C@@H](NC(=O)[C@H](Cc1ccccc1)NC(=O)[C@@H](NC(=O)CNC(=O)[C@H](CCC(=O)O)NC(=O)C(C)(C)NC(=O)[C@@H](N)Cc1ccc(O)cc1)[C@@H](C)O)[C@@H](C)O)C(C)C)C(=O)N[C@@H](C)C(=O)N[C@@H](Cc1c[nH]c2ccccc12)C(=O)N[C@@H](CC(C)C)C(=O)N[C@H](C(=O)N[C@@H](CCCCN)C(=O)NCC(N)=O)C(C)C [Compound 052-1] (H-Y[Aib]EGTFTSDYSEYMEKEAVREFIAWLVKG-NH2; N-terminus assumed) | 2.5 | – | 0.57 | 36.8 | – | – | – | –
7 | CCCCCCCCCCCCCCCC(=O)NCCCC[C@H](NC(=O)CNC(=O)[C@H](CCCCN)NC(=O)[C@@H](NC(=O)[C@H](CC(C)C)NC(=O)[C@H](Cc1c[nH]c2ccccc12)NC(=O)[C@H](C)NC(=O)[C@@H](NC(=O)[C@H](Cc1ccccc1)NC(=O)[C@H](CCC(=O)O)NC(=O)[C@H](CCCNC(=N)N)NC(=O)[C@@H](NC(=O)[C@H](C)NC(=O)[C@H](CCC(=O)O)NC(=O)[C@@H]1CCCCNC(=O)CC[C@H](NC(=O)[C@H](CO)NC(=O)[C@H](Cc2ccc(O)cc2)NC(=O)[C@H](CC(=O)O)NC(=O)[C@H](CO)NC(=O)[C@@H](NC(=O)[C@H](Cc2ccccc2)NC(=O)[C@@H](NC(=O)CNC(=O)[C@H](CCC(=O)O)NC(=O)C(C)(C)NC(=O)[C@@H](N)Cc2ccc(O)cc2)[C@@H](C)O)[C@@H](C)O)C(=O)N[C@@H](Cc2ccc(O)cc2)C(=O)N[C@@H](CCSC)C(=O)N[C@@H](CCC(=O)O)C(=O)N1)C(C)C)[C@@H](C)CC)C(C)C)C(N)=O [Compound 084] (H-Y[Aib]EGTFTSDYSEYMEKEAVREFIAWLVKGK(Palmitoyl)-NH2; lactam 12-16) | – | 22.2 | – | 8.8 | – | – | – | –
